Measurements taken from patent US20070179143A1 (priority 2003, published 2007).

Columns and labels:
SK-OV-3 = assay: Cytotoxicity test to cancer cell lines (SRB method), SK-OV-3; assay type: cell-based; details: Homo sapiens, SK-OV-3, 48 h, read-out: Cytotoxicity ED50 SK-OV-3
A549 = assay: Cytotoxicity test to cancer cell lines (SRB method), A549; details: Homo sapiens, A549, 48 h, read-out: Cytotoxicity ED50 A549
HCT-15 = assay: Cytotoxicity test to cancer cell lines (SRB method), HCT-15; details: Homo sapiens, HCT-15, 48 h, read-out: Cytotoxicity ED50 HCT15
Protocol: (§4) Cytotoxicity to A549 (Korea Research Institute of Chemical Technology), SK-OV-3 (Korea Research Institute of Chemical Technology), SK-MEL-2 (Korea Research Institute of Chemical Technology), HCT-15 (Korea Research Institute of Chemical Technology) and MCF7 (Korean Cell Line Bank, Seoul National University School of medicine) cells was measured by Sulforhodamin-B (SRB) method (1989, National Cancer Institute (NCI)) which was developed for the measurement of in vitro anticancer activity of a drug. Cells were separated using 0.25% trypsin-EDTA solution, leading to the preparation of a cell suspension by 5×10^318 2×10^4 cells/well. Then, the suspension was distributed into a 96 well plate by 100 μl/well, which was cultured in a 37° C., 5% CO2 incubator for 24 hours. Compounds prepared in examples of the present invention were used as a sample. Precisely, the compound was dissolved in dimethylsulfoxide and diluted with RPMI 1640 medium before being used as a sample. The final concentration of the sample used varied ranging 1 μM˜0.00001 μM. The medium was removed from the 96 well plate and then diluted sample solution was added by 100 μl/well, followed by further culture in a 37° C., 5% CO2 incubator for 48 hours. Tz (time zero) plate was collected from the point of adding the sample. Upon completing the culture, the medium was removed from each well along with Tz plate, then 10% trichloroacetic acid (TCA) was added by 100 μl/well. The plate was left at 4° C. for 1 hour to let cells be fixed on the floor of the plate. After cells were fixed completely, the plate was washed with water 5-6 times to remove the remaining trichloroacetic acid solution completely and moisture was completely dried at room temperature. 0.4% Sulforhodamine-B was dissolved in 1% acetic acid solution to prepare a staining solution. Cells were stained for 30 minutes with a dye added by 100 μl to each well of the completely dried plate. Then, the plate was washed with 1% acetic acid solution 5-6 times to remove sulforhodamine-B remained uncombined with cells. Then, the plate was dried at room temperature. 10 mM Tris solution was added by 100 μ/well thereto to dissolve the dye, and optical density (OD) was measured at 520 nm with a micro plate reader.
(§5) ED50 (concentration that inhibits cancer cell growth 50%, 5.0% effective dose, nM/ml) of the sample to cancer cell was calculated as follows. OD value at the point of beginning the culture with the sample was determined as Tz (time zero) value. OD value of a well to be cultured without the sample was determined as a control value (C). OD value of a well pretreated with the sample was determined as experimental value (T). After calculating Tz, C and T, cytotoxicity of the sample was measured by the below <Mathematical Formula 1>. T≦Tz, (T−Tz)/(C−Tz)×100 T>Tz, (T−Tz)/Tz×10,0 <Mathematical Formula 1>
(§6) ED50, the concentration that can inhibit cancer cell growth by 50%, was calculated by using a regression analysis of lotus program based on the degree of cytotoxicity obtained by the <Mathematical Formula 1>.

[1] = tested on: human lung cancer cell line NCI-H460; assay: Inhibiting effect on tumor growth, NCI-H460 xenografted nude mice
Protocol: Samples for the experiment were stored in a refrigerator all the time. […] The prepared sample is subject to be precipitated, so that tip sonication was performed right before the administration to disperse it well.
7 week-old female S.P.F. BALB/c nude mice, provided by Charles River Co., Japan, were used as test animals. The test animals were adapted in a Hepa-filter room over a week before the test. The temperature was 21±2° C., humidity was 55±5% and 12-hour light and dark cycle was automatically repeated in that lab. Solid feed (Cheiluedang) was sterilized by radioactive rays and drinking water was also sterilized by autoclave. Feed and water were taken by the animal freely. Cancer cell line used in this experiment was NCI-H460 (human lung tumor cell line) provided by Korea Research Institute of Bioscience and Biotechnology.
The tumor cell line, stored in liquid nitrogen, was thawed and cultured in a 37° C., 5% CO2 incubator for a required time. Upon completing the culture, all the cells were recovered and cell concentration of the culture fluid was adjusted using PBS to 3×10^7 cells/ml. The adjusted cell culture solution was injected hypodermically into armpit between right shoulder girdle and chest wall by 0.3 ml per mouse. From the next day of grafting, NCI-H460 xenografted nude mice were administered intraperitoneal everyday with the sample solution by 0.2 ml/20 g of weight, once a day.
After the grafting of tumor cells, the volume of a tumor in each individual was measured in three dimensions by using a vernier caliper, which was represented in the below <Mathematical Formula 2>. Tumor volume=(length×width×height)/2 <Mathematical Formula 2>
Body weight changes of animal were measured three times a week. Each xenografted nude mouse was sacrificed to separate a tumor, which was then weighed.

MCF7 = assay: Cytotoxicity test to cancer cell lines (SRB method), MCF7; details: read-out: Cytotoxicity ED50 MCF-7, MCF-7, 48 hours
Protocol: as §4, §5, §6

SK-MEL-2 = assay: Cytotoxicity test to cancer cell lines (SRB method), SK-MEL-2; assay type: cell-based; details: Homo sapiens, SK-MEL-2, 48 h, read-out: Cytotoxicity ED50 SK-MEL-2
HUVEC cells = assay: Capillary-like tube formation assay; assay type: cell-based; details: HUVEC on matrigel, 24 hours
Protocol: Matrigel used in this experiment was a product of BioCoat. Matrigel was thawed in a refrigerator for 24 hours before use. Thawing matrigel, 96 well plate and yellow tip were put on ice. Then, matrigel was distributed into each well of the plate by 40 μl. The polymerization of the plate was performed in a 37° C. incubator for 30 minutes. Each well of the plate was inoculated with 180 μl of HUVEC cell solution (2×10^4 cells/m;) along with 20 μl of the compound of the Example 12 in serum-free media (0.3, 1,3, 10 and 30 μg/ml), followed by further culture for 24 hours.
Tube formation was observed under a microscope to investigate inhibition activity of angiogenesis.
Fumagilin and doxorubicin were used as a positive control.

ICR mice = assay: in vivo; details: for Death Total: ICR mice, 7 days, deaths/animals
Protocol: (§1) 5-week-old ICR mice having the weight of 25-35 g (SPF, SLC Co. Japan) were used as test animals. A pair of female and male of the mice was given for the test of each compound. Group T2, T3, T4 and T5 were arranged (10 animals per group) for the test of acute toxicity of the compound prepared in the Example 12. […] Control group (T1) was administered with only a solvent without the compound of the Example 12.
(§2) For comparison, colchicine was injected in the test animals by the same method as described in the above. The group treated with colchicine was composed of 6 mice.
(§3) Taxol produced by Bristol Myers Sqibb Co. was also used for comparison, and the injection and the test of acute toxicity were performed by the same method as described in the above.

in vivo = details: both, ICR, mouse, in vivo
Protocol: as §1, §2, §3

[2] = Body weight change of NCI-H460 xenografted nude mice; assay type: in vivo, BALB/c nude mouse
[3] = 1 mg/kg intraperitoneal once a day
[4] = 3 mg/kg intraperitoneal once a day
[5] = 10 mg/kg intraperitoneal once a day

COc1cc2c(c(OC)c1OC)-c1ccc(SC)c(=O)cc1[C@@H](NC(=O)c1cc(F)cc(CO[N+](=O)[O-])c1)CC2 [Example 12, 3-fluoro-5-nitrooxymethyl-N-[(7S)-1,2,3-trimethoxy-10-methylsulfanyl-9-oxo-5,6,7,9-tetrahydro-benzo[a]heptalen-7-yl]-benzamide]
EC50 (SK-OV-3): 0.27 nM
EC50 (A549): 0.05 nM
EC50 (HCT-15): 0.05 nM
Tumor volume Day 0 [1, 3]: 0.0 ± 0.0
Tumor volume Day 4 [1, 3]: 20.7 ± 3.1
Tumor volume Day 7 [1, 3]: 49.2 ± 12.2
Tumor volume Day 9 [1, 3]: 78.1 ± 13.0
Tumor volume Day 11 [1, 3]: 146.5 ± 8.8
Tumor Weight Day 14 [1, 3]: 950.9 ± 174.8 mg
Tumor volume Day 14 [1, 3]: 299.3 ± 41.5
Tumor volume Day 0 [1, 4]: 0.0 ± 0.0
Tumor volume Day 4 [1, 4]: 16.9 ± 5.1
Tumor volume Day 7 [1, 4]: 31.2 ± 11.7
Tumor volume Day 9 [1, 4]: 49.7 ± 15.8
Tumor volume Day 11 [1, 4]: 96.1 ± 26.1
Tumor Weight Day 14 [1, 4]: 714.5 ± 103.8 mg
Tumor volume Day 14 [1, 4]: 206.8 ± 48.0
Tumor volume Day 0 [1, 5]: 0.0 ± 0.0
Tumor volume Day 4 [1, 5]: 16.1 ± 6.7
Tumor volume Day 7 [1, 5]: 24.6 ± 9.8
Tumor volume Day 9 [1, 5]: 35.2 ± 12.9
Tumor volume Day 11 [1, 5]: 69.4 ± 26.9
Tumor Weight Day 14 [1, 5]: 390.9 ± 0 mg
Tumor volume Day 14 [1, 5]: 103.0 ± 0
size and weight of a tumor (in words) ([1]; comparing to solvent only (V.C-1, V.C-2) or positive control (taxol, adriamycin)): remarkably decreased
EC50 (MCF7): 0.03 nM
EC50 (SK-MEL-2): 0.11 nM
dosage that totally inhibited angiogenesis (HUVEC cells): over 10 μg/ml
dosage with angiogenesis inhibition activity (HUVEC cells; as good effect as fumagilin at 10 μg/ml): over 0.3 μg/ml
Death Total (ICR mice; 30 mg/kg into the abdominal cavity): 0/10
Death Total (ICR mice; 40 mg/kg into the abdominal cavity): 0/10
Death Total (ICR mice; 50 mg/kg into the abdominal cavity): 0/10
Death Total (ICR mice; 60 mg/kg into the abdominal cavity): 0/10
times as weak toxicity as that of colchicine (ICR mice; ratio of LD50): 30 times
LD50 (in vivo): 60 mg/kg
Body weight Change Day 1 [2, 3]: 100.0 ± 0.0%
Body weight Change Day 3 [2, 3]: 105.0 ± 1.4%
Body weight Change Day 7 [2, 3]: 104.2 ± 5.3%
Body weight Change Day 9 [2, 3]: 99.6 ± 4.4 %
Body weight Change Day 11 [2, 3]: 97.5 ± 3.6 %
Body weight Change Day 14 [2, 3]: 98.3 ± 3.2 %
Body weight Change Day 1 [2, 4]: 100.0 ± 0.0%
Body weight Change Day 3 [2, 4]: 102.8 ± 2.0%
Body weight Change Day 7 [2, 4]: 101.8 ± 4.2 %
Body weight Change Day 9 [2, 4]: 99.3 ± 3.3 %
Body weight Change Day 11 [2, 4]: 99.1 ± 2.8 %
Body weight Change Day 14 [2, 4]: 94.5 ± 3.9 %
Body weight Change Day 1 [2, 5]: 100.0 ± 0.0%
Body weight Change Day 3 [2, 5]: 103.9 ± 0.9%
Body weight Change Day 7 [2, 5]: 92.2 ± 3.5 %
Body weight Change Day 9 [2, 5]: 89.4 ± 2.0 %
Body weight Change Day 11 [2, 5]: 92.3 ± 2.9 %
Body weight Change Day 14 [2, 5]: 93.4 ± 0%
decrease of the weight of the mouse ([2]; comparing to solvent only or positive control): about 10%
